From patent US4968494A, “Methods and compositions for thrombolytic therapy” (Merck & Co., Inc., priority 1990, dated 1990)

Tests used:
[1] = tested on: blood clots; assay: in vitro clot lysis assay (TPA-catalyzed lysis of ^125 I-fibrin labelled clot); assay type: biochemical; settings: 200 μM cerulenin, buffer pH 7.5
Procedure: In the assay, whole blood or plasma is charged with ^125 I-fibrinogen. Thrombin is added to initiate clot formation and subsequently incubated for 2 hours to complete the cross-linking by endogenous Factor XIII. Factor XIIIa inhibitor is added prior to clot initiation or at various times during the 2-hour incubation. At the end of this period, the labelled clot is washed and lysis is initiated by exogenous tissue plasminogen activator (TPA). Exogenous plasminogen is employed in some experiments. Endogenous plasminogen is used for others. Clot dissolution as a function of time is monitored by the release of solubilized ^125 I-fibrin-derived fragments.
In FIGS. 1 and 2, the open symbols indicate absence of cerulenin and the closed symbols indicate the presence of 200μM cerulenin at the time of clot formation. Clot lysis is conducted in buffer, pH 7.5; 5 ng/mL TPA represents approximate physiologic concentration. 50 to […] represents pharmacologic concentration range. […] FIG. 2 studies employed glu-plasminogen levels at approximately 10 percent physiologic level (12μ/mL)

[2] = target: T1, Factor XIIIa (Homo sapiens, UniProt P00488); assay: Factor XIIIa inhibitor assay (incorporation of ^14 C-putrescine into casein catalyzed by Factor XIIIa); assay type: biochemical; settings: read-out: Percent Inhibition
T1 construct: from tissue; host or cells: human plasma
T1 sequence (P00488 39-732 limits assumed): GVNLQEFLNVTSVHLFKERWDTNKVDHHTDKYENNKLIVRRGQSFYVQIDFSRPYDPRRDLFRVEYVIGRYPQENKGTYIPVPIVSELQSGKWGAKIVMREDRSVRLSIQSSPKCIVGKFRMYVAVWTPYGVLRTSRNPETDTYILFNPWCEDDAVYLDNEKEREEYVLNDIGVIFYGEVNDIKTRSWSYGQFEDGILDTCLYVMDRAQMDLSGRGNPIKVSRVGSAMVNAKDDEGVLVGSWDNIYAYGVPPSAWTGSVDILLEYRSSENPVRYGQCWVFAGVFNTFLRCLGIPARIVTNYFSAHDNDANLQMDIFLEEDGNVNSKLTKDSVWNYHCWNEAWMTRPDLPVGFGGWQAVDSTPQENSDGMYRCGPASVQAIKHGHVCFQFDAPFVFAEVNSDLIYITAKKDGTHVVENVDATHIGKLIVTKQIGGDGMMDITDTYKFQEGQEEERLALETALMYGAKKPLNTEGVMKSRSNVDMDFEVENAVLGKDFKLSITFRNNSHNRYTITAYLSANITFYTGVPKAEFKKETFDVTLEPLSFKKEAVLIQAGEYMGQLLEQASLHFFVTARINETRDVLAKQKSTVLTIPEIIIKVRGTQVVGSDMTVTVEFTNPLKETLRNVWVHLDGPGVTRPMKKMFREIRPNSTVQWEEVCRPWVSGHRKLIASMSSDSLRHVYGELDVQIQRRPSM
Procedure: The Factor XIIIa inhibitor assay is based on the incorporation of ^14 C-putrescine into casein catalyzed by Factor XIIIa. The assay is carried out employing the procedure described in Methods in Enzymology, Vol. 45, Ch 15., pages 177-191 (1976) and using Factor XIII (F XIII) isolated from human plasma. The procedure is summarized briefly and schematically illustrated as follows: [drawing 16]
Factor XIII assay mixtures are prepared by adding stepwise, appropriate prepared solutions of thrombin and dithiothreitol (DTT) to a mixture comprising Factor XIII in glycerol/water and tris(hydroxymethyl)aminomethane hydrochloride (Tris.cndot.HCl). To a portion of the mixture is added calcium chloride as source of calcium ions required for enzyme activity and to the remaining mixture is added instead of calcium ions ethylenediaminetetracetic acid (EDTA) which serves as a blank for background.
A substrate mixture is prepared from ^14 C-putrescine and […].
The assay tubes and control tubes are charged with the substrate mixture and incubated at 37° C. for 220 minutes. Samples are withdrawn from each tube, spotted onto a filter disk which is then immersed in ice cold trichloroacetic acid solution to precipitate the casein on the filter. The filter is then washed to remove unincorporated or free ^14 C-putrescine and after drying is counted for ^14 C-putrescine incorporated to casein from which percent activity and/or inhibition can be calculated.

Row | SMILES | lysis rates ([1]; 12 μg/mL exogenous glu-plasminogen, TPA, FIG. 2) | rates and extents of lysis ([1]; no exogenous plasminogen, physiological and pharmacological levels of TPA, FIG. 1) | inhibition at 62 µM ([2]; 6.2 × 10^-5 M) [%] | inhibition at 6.2 µM ([2]; 6.2 × 10^-6 M) [%] | inhibition at 0.62 µM ([2]; 6.2 × 10^-7 M) [%] | inhibition at 13 µM ([2]; 1.3 × 10^-5 M) [%] | inhibition at 1.5 µM ([2]; 1.5 × 10^-6 M) [%] | inhibition at 0.17 µM ([2]; 1.7 × 10^-7 M) [%] | inhibition at 4.5 µM ([2]; 4.5 × 10^-6 M) [%] | inhibition at 0.5 µM ([2]; 5 × 10^-7 M) [%]
1 | C/C=C/C/C=C/CCC(=O)[C@H]1O[C@H]1C(N)=O [Cerulenin, (2R,3S)-2,3-epoxy-4-oxo-7E,10E-dodecadienamide] | lysis rates were further enhanced | enhanced rates and extents of lysis | 100 | 64 | 22 |  |  |  |  | 
2 | O=C(O)C=Cc1nc2ccccc2[nH]1 [3-(Benzimidazol-2-yl)-acrylic acid, 3-(benzimidazol-2-yl)acrylic acid] |  |  |  |  |  | 91 | 52 | 9 | 78 | 19
